Common to all, as to assay: Kinase selectivity, DiscoverX scanMAX Kinase assay panel (% control)
Format in all cases: binding

The target of test [1] is T1, kinases of the scanMAX Kinase assay panel (Homo sapiens, UniProt Q9UEW8).
T1 construct: purchased DiscoverX Co. (contract measurement) scanMAX Kinase assay panel
The conditions noted are these: kinase STK39; 1 uM in DMSO. In short, it runs like this:
(§1)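 Percent of control computed as (compound − positive control)/(negative control − positive control) × 100, DMSO defining 100% and positive control 0%. Each panel kinase exposed to 1 uM compound; values under 35% taken to mean the compound acts on that kinase.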

In test [2] the target is T2, kinases of the scanMAX Kinase assay panel (Homo sapiens, UniProt O14578).
T2 construct: purchased DiscoverX Co. (contract measurement) scanMAX Kinase assay panel
The conditions noted are these: CIT; 1 uM. In short, it runs like this: as §1

Test [3] has as its system kinases of the scanMAX Kinase assay panel. The conditions noted are these: 1 uM. The gist of the method:
as §1

Test [4] concerns the target T3, kinases of the scanMAX Kinase assay panel (Homo sapiens, UniProt P27361).
T3 construct: purchased DiscoverX Co. (contract measurement) scanMAX Kinase assay panel
The note with it: ERK1; 1 uM. The gist of the method:
as §1

For test [5], the target named is T4, kinases of the scanMAX Kinase assay panel (Homo sapiens, UniProt Q13043).
T4 construct: purchased DiscoverX Co. (contract measurement) scanMAX Kinase assay panel
T4 sequence (Q13043 1-487): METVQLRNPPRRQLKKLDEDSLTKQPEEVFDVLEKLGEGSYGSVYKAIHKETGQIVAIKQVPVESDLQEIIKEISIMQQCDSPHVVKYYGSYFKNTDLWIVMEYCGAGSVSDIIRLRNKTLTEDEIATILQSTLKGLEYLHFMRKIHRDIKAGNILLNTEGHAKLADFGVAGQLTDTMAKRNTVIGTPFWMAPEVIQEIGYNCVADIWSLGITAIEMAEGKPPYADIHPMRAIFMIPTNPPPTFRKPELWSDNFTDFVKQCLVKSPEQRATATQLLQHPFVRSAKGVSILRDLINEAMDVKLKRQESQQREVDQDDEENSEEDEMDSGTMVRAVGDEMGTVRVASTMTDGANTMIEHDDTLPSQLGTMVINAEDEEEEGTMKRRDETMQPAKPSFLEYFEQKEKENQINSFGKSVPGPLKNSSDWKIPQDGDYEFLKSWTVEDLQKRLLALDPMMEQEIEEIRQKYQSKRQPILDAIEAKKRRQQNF
The note with it: MST1; 1 uM. In short, it runs like this: as §1

In test [6] the target is T5, kinases of the scanMAX Kinase assay panel (Homo sapiens, UniProt Q06187).
T5 construct: purchased DiscoverX Co. (contract measurement) scanMAX Kinase assay panel
The conditions noted are these: BTK; 1 uM. In short, it runs like this:
as §1

Test [7] addresses T6, kinases of the scanMAX Kinase assay panel (Homo sapiens, UniProt Q02763).
T6 construct: purchased DiscoverX Co. (contract measurement) scanMAX Kinase assay panel
The note with it: kinase TIE2; 1 uM in DMSO. The gist of the method: as §1

For test [8], the target named is T7, kinases of the scanMAX Kinase assay panel (Homo sapiens, UniProt Q7KZI7).
T7 construct: purchased DiscoverX Co. (contract measurement) scanMAX Kinase assay panel
The conditions noted are these: MARK2; 1 uM. The gist of the method:
as §1

For test [9], the target named is T8, kinases of the scanMAX Kinase assay panel (Homo sapiens, UniProt P23443).
T8 construct: purchased DiscoverX Co. (contract measurement) scanMAX Kinase assay panel
The conditions noted are these: kinase S6K1; 1 uM in DMSO. In short, it runs like this:
as §1

In test [10] the target is T9, kinases of the scanMAX Kinase assay panel (Homo sapiens, UniProt Q07912).
T9 construct: purchased DiscoverX Co. (contract measurement) scanMAX Kinase assay panel
The note with it: kinase TNK2; 1 uM in DMSO. The gist of the method: as §1

The target of test [11] is T10, kinases of the scanMAX Kinase assay panel (Homo sapiens, UniProt P08631).
T10 construct: purchased DiscoverX Co. (contract measurement) scanMAX Kinase assay panel
The conditions noted are these: HCK; 1 uM. The gist of the method: as §1

In test [12] the target is T11, kinases of the scanMAX Kinase assay panel (Homo sapiens, UniProt Q96PN8).
T11 construct: purchased DiscoverX Co. (contract measurement) scanMAX Kinase assay panel
T11 sequence (Q96PN8 1-268): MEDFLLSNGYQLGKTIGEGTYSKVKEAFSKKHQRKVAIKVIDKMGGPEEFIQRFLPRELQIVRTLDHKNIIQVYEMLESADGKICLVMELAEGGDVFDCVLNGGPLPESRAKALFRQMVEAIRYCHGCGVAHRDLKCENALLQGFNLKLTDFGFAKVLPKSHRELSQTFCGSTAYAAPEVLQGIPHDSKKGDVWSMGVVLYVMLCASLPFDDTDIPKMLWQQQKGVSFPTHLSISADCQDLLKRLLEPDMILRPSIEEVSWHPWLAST
The note with it: kinase TSSK3; 1 uM in DMSO. In short, it runs like this: as §1

The target of test [13] is T12, kinases of the scanMAX Kinase assay panel (Homo sapiens, UniProt O75676).
T12 construct: purchased DiscoverX Co. (contract measurement) scanMAX Kinase assay panel
The conditions noted are these: 1 uM in DMSO. In short, it runs like this: as §1

Test [14] has as its target T13, kinases of the scanMAX Kinase assay panel (Homo sapiens, UniProt O14730).
T13 construct: purchased DiscoverX Co. (contract measurement) scanMAX Kinase assay panel
T13 sequence (O14730 1-519): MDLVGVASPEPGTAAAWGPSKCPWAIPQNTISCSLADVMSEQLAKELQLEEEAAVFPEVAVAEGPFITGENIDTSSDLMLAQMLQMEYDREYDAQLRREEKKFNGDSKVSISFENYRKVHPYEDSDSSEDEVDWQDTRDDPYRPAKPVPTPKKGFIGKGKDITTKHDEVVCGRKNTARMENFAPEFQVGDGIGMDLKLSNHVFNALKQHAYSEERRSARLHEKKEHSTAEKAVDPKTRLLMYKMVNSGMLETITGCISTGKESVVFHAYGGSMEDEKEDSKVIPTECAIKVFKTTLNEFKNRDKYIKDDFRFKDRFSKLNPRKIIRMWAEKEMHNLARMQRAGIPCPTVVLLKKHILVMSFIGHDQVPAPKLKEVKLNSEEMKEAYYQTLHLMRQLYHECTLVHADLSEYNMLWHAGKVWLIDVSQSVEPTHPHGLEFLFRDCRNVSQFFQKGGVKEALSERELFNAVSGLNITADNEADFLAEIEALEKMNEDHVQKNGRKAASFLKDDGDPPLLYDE
The note with it: kinase RIOK3; 1 uM in DMSO. In short, it runs like this: as §1

Where [15] appears, read: kinase RPS6KA4(Kin.Dom.1-N-terminal), read-out: % control, RPS6KA4(Kin.Dom.1-N-terminal).
Setting [16] is: kinase RPS6KA4(Kin.Dom.2-C-terminal), read-out: % control, RPS6KA4(Kin.Dom.2-C-terminal).

Structures are written as SMILES. Read-outs that look alike come from different tables or passages of the source.

T2 sequence (O14578 whole entry): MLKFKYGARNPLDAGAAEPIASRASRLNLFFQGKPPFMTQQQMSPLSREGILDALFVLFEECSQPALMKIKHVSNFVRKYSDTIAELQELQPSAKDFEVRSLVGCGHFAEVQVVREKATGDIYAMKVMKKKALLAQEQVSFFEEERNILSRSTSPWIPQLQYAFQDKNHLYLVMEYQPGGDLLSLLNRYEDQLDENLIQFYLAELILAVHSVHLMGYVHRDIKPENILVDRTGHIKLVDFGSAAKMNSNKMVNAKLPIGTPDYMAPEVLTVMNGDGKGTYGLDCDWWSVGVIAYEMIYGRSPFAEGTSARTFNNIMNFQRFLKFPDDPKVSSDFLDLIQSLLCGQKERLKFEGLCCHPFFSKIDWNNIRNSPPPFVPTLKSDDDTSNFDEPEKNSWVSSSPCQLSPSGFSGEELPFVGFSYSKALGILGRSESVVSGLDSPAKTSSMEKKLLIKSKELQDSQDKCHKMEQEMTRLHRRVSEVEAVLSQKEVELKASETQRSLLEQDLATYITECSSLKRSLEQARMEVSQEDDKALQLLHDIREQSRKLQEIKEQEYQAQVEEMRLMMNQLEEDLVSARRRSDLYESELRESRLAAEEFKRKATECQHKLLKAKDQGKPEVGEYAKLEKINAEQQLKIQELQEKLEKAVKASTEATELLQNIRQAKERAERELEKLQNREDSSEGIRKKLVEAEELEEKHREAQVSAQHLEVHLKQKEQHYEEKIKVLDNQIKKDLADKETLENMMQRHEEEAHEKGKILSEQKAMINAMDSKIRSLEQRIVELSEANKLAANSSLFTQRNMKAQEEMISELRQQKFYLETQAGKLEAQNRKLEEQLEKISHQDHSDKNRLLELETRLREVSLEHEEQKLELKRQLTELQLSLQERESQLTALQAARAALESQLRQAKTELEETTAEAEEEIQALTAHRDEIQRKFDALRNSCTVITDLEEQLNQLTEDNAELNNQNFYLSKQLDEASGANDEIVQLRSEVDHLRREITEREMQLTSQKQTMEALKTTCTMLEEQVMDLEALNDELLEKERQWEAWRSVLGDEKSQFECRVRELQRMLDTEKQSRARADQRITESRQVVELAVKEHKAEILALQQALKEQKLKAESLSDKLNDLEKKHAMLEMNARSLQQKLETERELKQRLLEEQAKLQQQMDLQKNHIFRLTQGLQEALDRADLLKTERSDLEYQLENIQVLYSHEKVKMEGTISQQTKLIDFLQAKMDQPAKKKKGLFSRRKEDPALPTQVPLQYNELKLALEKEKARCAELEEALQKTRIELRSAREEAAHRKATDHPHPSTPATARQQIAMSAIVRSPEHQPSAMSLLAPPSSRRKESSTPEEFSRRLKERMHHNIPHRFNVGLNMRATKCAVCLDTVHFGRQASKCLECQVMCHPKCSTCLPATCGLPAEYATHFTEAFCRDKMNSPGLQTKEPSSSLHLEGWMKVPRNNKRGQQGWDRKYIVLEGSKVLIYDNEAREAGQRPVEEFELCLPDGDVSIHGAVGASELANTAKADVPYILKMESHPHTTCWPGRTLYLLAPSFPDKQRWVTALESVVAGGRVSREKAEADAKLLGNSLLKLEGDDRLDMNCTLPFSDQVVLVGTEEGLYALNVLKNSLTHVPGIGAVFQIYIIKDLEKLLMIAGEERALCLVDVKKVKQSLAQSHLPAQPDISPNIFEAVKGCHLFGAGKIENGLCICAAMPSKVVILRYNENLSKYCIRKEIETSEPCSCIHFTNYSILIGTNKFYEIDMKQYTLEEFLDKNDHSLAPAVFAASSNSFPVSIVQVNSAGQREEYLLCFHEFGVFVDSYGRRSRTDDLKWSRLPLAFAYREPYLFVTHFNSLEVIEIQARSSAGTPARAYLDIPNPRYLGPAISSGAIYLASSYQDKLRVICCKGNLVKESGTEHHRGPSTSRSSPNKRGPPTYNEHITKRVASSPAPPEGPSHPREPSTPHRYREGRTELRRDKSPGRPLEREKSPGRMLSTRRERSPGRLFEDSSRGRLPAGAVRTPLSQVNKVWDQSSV
T10 sequence (P08631 whole entry): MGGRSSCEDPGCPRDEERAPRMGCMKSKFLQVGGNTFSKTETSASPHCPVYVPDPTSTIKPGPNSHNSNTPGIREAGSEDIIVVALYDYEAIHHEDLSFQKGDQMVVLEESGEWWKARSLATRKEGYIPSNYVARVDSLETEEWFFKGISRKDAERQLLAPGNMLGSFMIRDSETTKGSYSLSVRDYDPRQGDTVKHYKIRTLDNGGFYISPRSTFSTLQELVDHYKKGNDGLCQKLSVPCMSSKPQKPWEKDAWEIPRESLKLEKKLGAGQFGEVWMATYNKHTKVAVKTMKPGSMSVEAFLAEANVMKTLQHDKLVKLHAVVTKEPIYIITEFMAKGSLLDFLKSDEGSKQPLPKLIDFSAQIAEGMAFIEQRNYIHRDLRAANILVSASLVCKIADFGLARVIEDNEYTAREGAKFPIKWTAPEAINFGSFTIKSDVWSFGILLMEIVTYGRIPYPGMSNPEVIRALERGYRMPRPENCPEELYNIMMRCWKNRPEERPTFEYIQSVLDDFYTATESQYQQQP
T7 sequence (Q7KZI7 whole entry): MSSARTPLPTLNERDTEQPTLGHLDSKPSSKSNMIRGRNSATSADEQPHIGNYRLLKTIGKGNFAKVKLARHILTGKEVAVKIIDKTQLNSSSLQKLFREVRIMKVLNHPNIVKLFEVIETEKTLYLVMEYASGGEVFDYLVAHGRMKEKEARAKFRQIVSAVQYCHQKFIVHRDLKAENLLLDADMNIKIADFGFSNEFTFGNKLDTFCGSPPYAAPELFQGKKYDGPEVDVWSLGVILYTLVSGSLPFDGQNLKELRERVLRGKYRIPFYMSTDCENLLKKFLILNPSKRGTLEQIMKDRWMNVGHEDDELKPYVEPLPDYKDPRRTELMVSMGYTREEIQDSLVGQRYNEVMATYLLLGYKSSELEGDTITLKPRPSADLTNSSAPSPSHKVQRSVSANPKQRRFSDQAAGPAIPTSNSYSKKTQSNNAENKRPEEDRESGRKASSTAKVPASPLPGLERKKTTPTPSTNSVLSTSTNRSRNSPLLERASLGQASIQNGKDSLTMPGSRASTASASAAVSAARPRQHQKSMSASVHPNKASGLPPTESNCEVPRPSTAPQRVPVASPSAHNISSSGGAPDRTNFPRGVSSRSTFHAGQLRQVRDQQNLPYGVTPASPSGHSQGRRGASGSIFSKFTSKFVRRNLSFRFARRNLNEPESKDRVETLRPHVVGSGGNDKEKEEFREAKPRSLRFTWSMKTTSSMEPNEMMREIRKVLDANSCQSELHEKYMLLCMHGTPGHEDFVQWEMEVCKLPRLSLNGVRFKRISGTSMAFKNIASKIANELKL
T6 sequence (Q02763 23-1124): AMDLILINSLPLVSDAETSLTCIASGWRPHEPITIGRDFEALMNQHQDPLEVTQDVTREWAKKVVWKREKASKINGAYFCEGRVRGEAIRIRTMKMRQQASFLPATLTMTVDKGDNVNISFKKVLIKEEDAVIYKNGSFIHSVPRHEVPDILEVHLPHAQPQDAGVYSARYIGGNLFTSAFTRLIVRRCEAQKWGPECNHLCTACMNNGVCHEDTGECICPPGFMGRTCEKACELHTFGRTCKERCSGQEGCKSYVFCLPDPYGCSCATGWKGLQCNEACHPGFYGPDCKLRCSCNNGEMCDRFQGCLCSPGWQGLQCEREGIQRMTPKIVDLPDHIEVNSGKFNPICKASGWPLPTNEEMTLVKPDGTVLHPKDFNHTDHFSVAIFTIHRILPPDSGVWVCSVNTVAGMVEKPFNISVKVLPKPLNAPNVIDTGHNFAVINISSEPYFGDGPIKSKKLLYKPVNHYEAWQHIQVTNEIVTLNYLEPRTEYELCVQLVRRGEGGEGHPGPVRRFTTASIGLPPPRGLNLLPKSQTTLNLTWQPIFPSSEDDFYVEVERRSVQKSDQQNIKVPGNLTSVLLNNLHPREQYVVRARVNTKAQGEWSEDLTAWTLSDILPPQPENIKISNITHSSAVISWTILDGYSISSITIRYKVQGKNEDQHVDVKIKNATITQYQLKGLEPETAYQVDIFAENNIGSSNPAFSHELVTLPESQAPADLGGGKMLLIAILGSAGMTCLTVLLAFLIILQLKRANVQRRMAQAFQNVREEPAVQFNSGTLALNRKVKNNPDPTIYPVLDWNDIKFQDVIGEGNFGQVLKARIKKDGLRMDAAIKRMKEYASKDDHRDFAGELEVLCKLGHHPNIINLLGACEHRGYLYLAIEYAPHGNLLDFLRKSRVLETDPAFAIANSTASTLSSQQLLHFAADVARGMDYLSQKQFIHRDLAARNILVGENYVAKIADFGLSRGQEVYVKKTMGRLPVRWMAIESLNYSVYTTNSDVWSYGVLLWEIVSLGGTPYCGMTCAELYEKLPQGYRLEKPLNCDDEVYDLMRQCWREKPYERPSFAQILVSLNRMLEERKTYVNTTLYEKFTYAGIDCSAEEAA
T3 sequence (P27361 whole entry): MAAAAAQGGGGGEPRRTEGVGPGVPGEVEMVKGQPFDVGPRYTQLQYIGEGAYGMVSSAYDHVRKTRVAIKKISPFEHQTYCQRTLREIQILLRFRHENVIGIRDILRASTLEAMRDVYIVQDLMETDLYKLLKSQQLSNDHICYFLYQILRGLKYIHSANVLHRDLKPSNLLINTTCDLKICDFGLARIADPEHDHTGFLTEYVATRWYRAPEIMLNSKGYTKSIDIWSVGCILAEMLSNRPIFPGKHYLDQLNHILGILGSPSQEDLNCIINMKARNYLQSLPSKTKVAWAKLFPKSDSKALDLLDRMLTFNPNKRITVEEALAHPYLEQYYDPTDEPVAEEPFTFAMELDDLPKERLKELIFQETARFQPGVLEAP

`CC1(Nc2nc(Nc3cnn([C@H]4CCN(C5COC5)C[C@@H]4F)c3Cl)nc3[nH]cc(C#N)c23)CC1` [Example 52, 2-((5-chloro-1-((3S,4S)-3-fluoro-1-(oxetane-3-yl)piperidine-4-yl)-1H-pyrazole-4-yl)amino)((1-methylcyclopropyl)amino)-7H-pyrrolo[2,3-d]pyrimidine-5-carbonitrile]: the remaining binding at 1 µM stood at 0% in [1]; 76% in test [2]; 42% in [4]; 17% in test [5]; 9.1% in test [6]; 46% in test [7]. Further, the remaining binding at 1 µM in test [8] came out at 9.5%; in [9], 52%; in test [10], 0.9%; in test [11] it was 11%; in [12] it was 72%; in test [13] (setting [15]) it was 68%. The remaining binding at 1 µM in [13] (setting [16]) was 2.2%; in test [14], 0.4%. For the same compound, the “% control” value in test [3] (EGFR(L747-E749de1, A750P)) was 38%; in [3] (EGFR(L747-S752de1, P753S)), 49%; in test [3] (EGFR(L747-T751de1, Sins)) it was 68%; in test [3] (EPHAl) it was 58%; in [3] (FLT3(ITD)) it was 0%; in test [3] (FLT3(ITD, D835V)), 0%. Further, in test [3] (FLT3(ITD, F691L)), the “% control” value amounted to 0.7%.

For `CCNc1nc(Nc2ccc(C(=O)N3CCC(N4CCOCC4)CC3)cc2OC)nc2[nH]cc(C(F)(F)F)c12` [Example 104, (4-((4-(ethylamino)-5-(trifluoromethyl)-7H-pyrrolo[2,3-d]pyrimidine-2-yl)amino)-3-methoxyphenyl)(4-morpholinopiperidine-1-yl)methanone], the remaining binding at 1 µM in test [1] was determined as 30%; in test [2] it was 100%; in [4], 100%; in test [5], 100%; in [6] it was 100%; in test [7] it was 100%. The remaining binding at 1 µM in test [8] stood at 81%; in test [9], 80%; in test [10], 31%; in test [11], 100%; in test [12] it was 100%; in test [13] (setting [15]), 100%. The remaining binding at 1 µM in [13] (setting [16]) was found to be 18%; in [14], 100%. The “% control” value turned out to be 99% in test [3] (EGFR(L747-E749de1, A750P)); 98% in test [3] (EGFR(L747-S752de1, P753S)); 100% in test [3] (EGFR(L747-T751de1, Sins)); 100% in [3] (EPHAl); 21% in test [3] (FLT3(ITD)); 15% in test [3] (FLT3(ITD, D835V)). In test [3] (FLT3(ITD, F691L)), the “% control” value is reported as 79%.

With `CNc1nc(Nc2ccc(C(=O)N3CCOCC3)cc2OC)nc2[nH]cc(C#N)c12` [Example 1, 2-((2-methoxy-4-(morpholine-4-carbonyl)phenyl)amino)-4-(methylamino)-7H-pyrrolo[2,3-d]pyrimidine-5-carbonitrile], the remaining binding at 1 µM was 14% in test [1]; 86% in [2]; 88% in test [4]; 93% in test [5]; 72% in test [6]; 92% in [7]. The remaining binding at 1 µM in test [8] amounted to 100%; in [9], 70%; in test [10], 82%; in test [11] it was 95%; in test [12], 74%; in [13] (setting [15]), 92%. The remaining binding at 1 µM came out at 0.2% in [13] (setting [16]) and 97% in test [14]. For the same compound, the “% control” value in test [3] (EGFR(L747-E749de1, A750P)) turned out to be 98.0%; in [3] (EGFR(L747-S752de1, P753S)), 100.0%; in test [3] (EGFR(L747-T751de1, Sins)) it was 61.0%; in test [3] (EPHAl), 93.0%; in test [3] (FLT3(ITD)), 83.0%; in [3] (FLT3(ITD, D835V)) it was 51.0%. Further, the “% control” value in test [3] (FLT3(ITD, F691L)) was determined as 47.0%.

These data come from patent US11208412B2 (DAEGU-GYEONGBUK MEDICAL INNOVATION FOUNDATION, priority 2017, dated 2021).
